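Cells were grown in 96-well plates and exposed to each compound for 48 hours at five concentrations; endpoints were interpolated linearly between bracketing concentrations, or set to the highest concentration if not reached. TGI is the concentration that stops growth completely.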
Experiments:
Assay in all cases: NCI-60 cell line screen, 48 h
HL-60(TB) leukemia = system: HL-60(TB) leukemia
SK-MEL-28 melanoma = system: SK-MEL-28 melanoma
UACC-257 melanoma = system: UACC-257 melanoma
MDA-MB-231 breast = system: MDA-MB-231 breast
SNB-19 CNS = system: SNB-19 CNS
TK-10 renal = system: TK-10 renal
MCF7 breast = system: MCF7 breast
U251 CNS = system: U251 CNS
OVCAR-5 ovarian = system: OVCAR-5 ovarian
HOP-92 NSCLC = system: HOP-92 NSCLC
SF-539 CNS = system: SF-539 CNS
KM12 colon = system: KM12 colon
SW-620 colon = system: SW-620 colon
IGROV1 ovarian = system: IGROV1 ovarian

| SMILES | TGI (HL-60(TB) leukemia) | TGI (SK-MEL-28 melanoma) | TGI (UACC-257 melanoma) | TGI (MDA-MB-231 breast) | TGI (SNB-19 CNS) | TGI (TK-10 renal) | TGI (MCF7 breast) | TGI (U251 CNS) | TGI (OVCAR-5 ovarian) | TGI (HOP-92 NSCLC) | TGI (SF-539 CNS) | TGI (KM12 colon) | TGI (SW-620 colon) | TGI (IGROV1 ovarian) |
| --- | --- | --- | --- | --- | --- | --- | --- | --- | --- | --- | --- | --- | --- | --- |
| O=C1CSC(c2cccc(Oc3ccccc3)c2)N1c1cccc(Cl)c1Cl (configuration not stated) | 70.2 µM | > 100 µM | 61.5 µM | > 100 µM | > 100 µM | > 100 µM | 32.8 µM | 39.1 µM | > 100 µM | 45.8 µM | 58.3 µM | > 100 µM | > 100 µM |  |
| O=C(Nc1nccs1)NS(=O)(=O)n1cnc2ccccc21 | > 100 µM | > 100 µM | > 100 µM | > 100 µM | > 100 µM | > 100 µM | > 100 µM | > 100 µM | > 100 µM | > 100 µM | > 100 µM | > 100 µM | > 100 µM | > 100 µM |
| CC1=CC(=O)/C(=C/N2C(=O)CNC2=S)C(=O)O1 | > 100 µM | > 100 µM | > 100 µM | > 100 µM | > 100 µM | > 100 µM | > 100 µM | > 100 µM | > 100 µM | > 100 µM | > 100 µM | > 100 µM | > 100 µM | > 100 µM |
| CC(C)(C)OC(=O)N1CCC(NC(=O)NC2CCN(C(=O)OC(C)(C)C)CC2)CC1 | > 100 µM | > 100 µM | > 100 µM | > 100 µM | > 100 µM | > 100 µM | > 100 µM | > 100 µM | > 100 µM | > 100 µM | > 100 µM | > 100 µM | > 100 µM | > 100 µM |
| O=C1NC(N2CCCCC2)=N/C1=C\c1ccccc1 | > 100 µM | > 100 µM | > 100 µM | > 100 µM | > 100 µM | > 100 µM | > 100 µM | > 100 µM | > 100 µM | > 100 µM | > 100 µM | > 100 µM | > 100 µM | > 100 µM |
| C(/C=C/Nc1ccc(-c2ccccc2)cc1)=Nc1ccc(-c2ccccc2)cc1 | > 100 µM | > 100 µM | > 100 µM | > 100 µM | > 100 µM | > 100 µM | > 100 µM | > 100 µM | > 100 µM | > 100 µM | > 100 µM | > 100 µM | > 100 µM | > 100 µM |
| NS(=O)(=O)c1nnc(NC(=O)/C=C/C(=O)O)s1 | > 100 µM | > 100 µM | > 100 µM | > 100 µM | > 100 µM | > 100 µM | > 100 µM | > 100 µM | > 100 µM | > 100 µM | > 100 µM | > 100 µM | > 100 µM |  |
| CCN(CCCl)c1cc(CN(C)C)cc(NC(=O)c2ccc(C(=O)Nc3ccccc3)cc2)c1 | 0.695 µM | 4.36 µM | 3.27 µM | 7.55 µM | 8.85 µM | 7.57 µM | 2.79 µM |  | 4.5 µM | 3.87 µM | 2.26 µM | 2.8 µM | 0.339 µM | 0.448 µM |
| CCOc1cc(/C=C2\N=C(c3ccccc3)N(c3nc4ccccc4s3)C2=O)ccc1O | 73.9 µM | > 100 µM | > 100 µM | > 100 µM |  | > 100 µM | > 100 µM | > 100 µM | > 100 µM | > 100 µM | > 100 µM | > 100 µM | > 100 µM | > 100 µM |
| COc1ccc(C(=O)N(Cc2cccnc2)C(=S)N(Cc2cccnc2)C(=O)c2ccc(OC)cc2)cc1 | > 100 µM | > 100 µM | > 100 µM | > 100 µM | > 100 µM | > 100 µM | > 100 µM | > 100 µM | > 100 µM | > 100 µM | > 100 µM | > 100 µM | > 100 µM |  |
| Cc1ccc(NC(=S)N=Nc2c(O)[nH]c3ccccc23)cc1 | > 100 µM | > 100 µM | > 100 µM | > 100 µM | > 100 µM | > 100 µM | > 100 µM | > 100 µM | > 100 µM | > 100 µM | > 100 µM | > 100 µM | > 100 µM | > 100 µM |
| CN(/N=C/c1ccccc1C(=O)O)C1=NCCCCN1 | > 100 µM |  | > 100 µM | > 100 µM | > 100 µM | > 100 µM | > 100 µM | > 100 µM | > 100 µM | > 100 µM | > 100 µM | > 100 µM | > 100 µM | > 100 µM |
